For two compounds, IC50 results are on record in doi:10.1101/2025.07.02.662801v1 (biorxiv, 2025).

Where two headings read alike, the source gives them in different places.

Type in all cases: biochemical
One experiment deals with T1, PTPN9 (MEG2) (Homo sapiens, UniProt P43378).
T1 sequence (P43378 1-593): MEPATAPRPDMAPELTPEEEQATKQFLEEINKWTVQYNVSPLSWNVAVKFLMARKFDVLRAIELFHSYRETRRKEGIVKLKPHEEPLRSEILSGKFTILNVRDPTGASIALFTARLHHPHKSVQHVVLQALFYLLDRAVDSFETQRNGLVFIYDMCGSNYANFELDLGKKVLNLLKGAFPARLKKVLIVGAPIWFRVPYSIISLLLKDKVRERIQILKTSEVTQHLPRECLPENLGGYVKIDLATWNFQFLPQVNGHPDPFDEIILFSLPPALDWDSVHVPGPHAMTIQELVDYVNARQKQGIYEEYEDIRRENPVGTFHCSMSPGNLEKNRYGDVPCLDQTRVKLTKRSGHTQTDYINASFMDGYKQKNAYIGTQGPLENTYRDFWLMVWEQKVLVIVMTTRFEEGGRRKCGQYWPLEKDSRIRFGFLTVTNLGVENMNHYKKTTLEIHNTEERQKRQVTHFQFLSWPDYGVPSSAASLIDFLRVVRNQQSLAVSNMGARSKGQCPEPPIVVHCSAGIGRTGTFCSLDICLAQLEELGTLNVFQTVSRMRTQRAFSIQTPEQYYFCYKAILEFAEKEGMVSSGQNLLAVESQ
As to the kind of experiment: in vitro phosphatase activity curve.

Experiment [1] concerns the target T2, PTPN2 (TC-PTP); GST-TC-PTP catalytic domain (Homo sapiens, UniProt P17706).
T2 sequence (P17706 1-314 limits assumed): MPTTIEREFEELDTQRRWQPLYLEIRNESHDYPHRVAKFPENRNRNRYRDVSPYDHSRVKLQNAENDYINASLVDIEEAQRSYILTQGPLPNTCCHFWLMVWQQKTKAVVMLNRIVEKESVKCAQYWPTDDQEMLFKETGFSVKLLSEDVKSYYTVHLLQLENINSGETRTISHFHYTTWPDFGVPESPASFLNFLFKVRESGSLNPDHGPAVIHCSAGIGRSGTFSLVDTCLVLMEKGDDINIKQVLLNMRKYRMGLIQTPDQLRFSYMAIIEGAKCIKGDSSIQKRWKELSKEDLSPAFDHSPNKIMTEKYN
Nature of the experiment: DiFMUP fluorescence phosphatase assay.

Experiment [2] concerns the target T3, PTPN1 (PTP1B); GST-PTP1B catalytic domain (Homo sapiens, UniProt P18031).
T3 sequence (P18031 1-321 limits assumed): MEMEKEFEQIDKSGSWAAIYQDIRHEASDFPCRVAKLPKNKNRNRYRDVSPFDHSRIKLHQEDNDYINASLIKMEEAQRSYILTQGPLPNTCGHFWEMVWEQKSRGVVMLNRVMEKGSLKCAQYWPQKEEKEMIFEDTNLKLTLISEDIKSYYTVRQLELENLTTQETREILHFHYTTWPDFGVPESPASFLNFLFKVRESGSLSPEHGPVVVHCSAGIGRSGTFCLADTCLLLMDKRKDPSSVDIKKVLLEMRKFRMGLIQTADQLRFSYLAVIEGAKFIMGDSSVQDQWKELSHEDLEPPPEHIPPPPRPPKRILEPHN
Nature of the experiment: DiFMUP fluorescence phosphatase assay.

As usually defined, the IC50 is the midpoint of a concentration-inhibition curve.

Consider `N#CCc1ccc2cc(Br)c(C(F)(F)P(=O)(O)O)cc2c1` [KQ791], for which the results for the IC50 (against PTPN9 (MEG2); in experiment [1]; in experiment [2]) were 7.2 µM, 0.188 µM and 0.188 µM, respectively.

In experiment [1] (50 mM HEPES pH 7.0, 3 mM DTT, 1 mg/mL BSA, 25 °C, DiFMUP at Km), `N#Cc1ccc2cc(Br)c(C(F)(F)P(=O)(O)O)cc2c1` [L598] displayed an IC50 of 0.489 µM.
